Measured values taken from EP1105728B1, “MODULATING MULTIPLE LINEAGE KINASE PROTEINS” (CEPHALON, INC., priority 1998, dated 2000).

How the values were obtained:
[1] = tested on: dorsal root ganglion sensory neurons (DRG); assay: Survival of chick embryonic dorsal root ganglion sensory neurons; format: cell-based
Method: Paravertebral sympathetic ganglia (SG; embryonal day 12 (E12)), dorsal root ganglia (DRG;E9), and ciliary ganglia (CG;E8) were dissected from chick embryos at the indicated embryonic day as described in Lindsay, et al., Dev. Biol., 1985, 112, 319-328, which is incorporated herein by reference in its entirety. After trypsinization and dissociation, the nerve cell suspensions were plated onto polyomithine-laminin-coated culture dishes in Ham's F14 culture medium, supplemented with 10% horse serum. Immediately after plating, survival factors were added at the following concentrations: Nerve growth factor (NGF), 20 ng/ml; ciliary neutrophic factor (CNTF), 10 ng/ml. The cultures were maintained at 37° and 5% CO2 in a humidified environment.
Neurons were plated in 35 mm culture dishes with grids (Nunc). […] Cell survival was confirmed by vital staining with trypan blue (not shown).

IL-2 = assay: Induction of IL-2 in Jurkat cells by anti CD3 and anti CD28 antibodies (ELISA); format: cell-based; conditions: Homo sapiens
Method: Jurkat cells were grown in RPMI 1640 medium supplemented with 10% fetal bovine serum. TNF-α was from Promega and anti CD3 and anti CD28 antibodies were from Pharmigen. Jurkat experiments were done in 200 µl in a 96 well plate. IL-2 was measured with an ELISA kit purchased from Boehringer Mannheim. The antibodies to CD3 and CD28 were allowed to bind to the plastic of the 96 well plate (18 hr in PBS) prior to addition of the Jurkat Cells. Cells were treated with compounds 1 hr prior to adding to the antibody coated plate. Antibodies to CD3 and CD28 were used to activate the T cell receptor and induce IL-2. I1-2 was released from the Jurkat cells between 6 hr and 24 hr after initiation of induction (Fig. 23A). No IL-2 was made constitutively (Fig. 23A CNT). The effect of Compound III-3 (1 hr treatment with Compound III-3 prior to induction) on IL-2 induction was next assessed (Fig. 23B). A Compound III-3 concentration of 500 nM inhibited IL-2 induction by greater than 80% (Fig. 23B).

For `CCSCc1ccc2c(c1)c1c3c(c4c5cc(CSCC)ccc5n5c4c1n2C1CC(O)(C(=O)OC)C5(C)O1)CNC3=O` (stereo not shown) [III-3], the “concentration at which the survival effect reached a plateau” value ([1]; 10% serum (Fig. 16)) was “around 1 µM”, the DRG survival ([1]; after four days) was 52% and the inhibition at 0.5 µM (IL-2; Jurkat, 500 nM, 1 hr treatment prior to induction (Fig. 23B)) was greater than 80%. The IC50 (IL-2; Jurkat cells (Fig. 23C)) was 139 nM.
